# Source: patent US10441681B2, “Materials and methods for nerve grafting” (University of Florida Research Foundation, Inc., priority 2001, dated 2019)
# How the values were obtained:
# [1] = test system: embryonic chick DRG neurons; assay: Cryoculture bioassay (neurite outgrowth) on sections of acellular rat nerve segments; format: cell-based
# Description: Cryoculture is a neurite outgrowth assay in which neurons are cultured directly on fresh/frozen nerve sections and was performed as described previously (Ferguson T A et al. [2000] Mol Cell Neurosci, 16:157-167). Briefly, chondroitinase- and vehicle-treated nerve segments were sectioned at 20 μm, mounted on sterile, aminopropyltriethoxysilane (APTS)-coated coverslips and stored at −20° C. until used. Where indicated, sections were treated with chondroitinase ABC (0.1 unit/ml) or vehicle (50 mM Tris-HCl, pH 8.0), containing 50 mM NaCl) for 2 h at 37° C. Purified dorsal root ganglionic (DRG) neurons from day 8 chick embryos were seeded directly on the nerve sections in a defined N2 medium (Bottenstein J E et al. [1980] Exp Cell Res 125:183-190) containing 10 ng/ml nerve growth factor. Cryoculture assays were terminated after 24 h of incubation by fixation with 100% methanol. Neuritic growth by DRG neurons was accessed by GAP-43 immunofluorescent labeling. Epifluorescent photomicrographs were acquired as described for tissue sections. Neurite lengths were measured directly using IMAGE-PRO PLUS software (MEDIA CYBERNETICS, Silver Springs, Md.). At least 250 neurons with neurites greater than one cell body (˜15 μm) were scored for each condition in each experiment.
# Inactivation of inhibitory CSPG in chondroitinase-treated acellular nerve was determined by cryoculture bioassay. Embryonic chick DRG neurons were seeded onto sections of prepared nerve segments and the neurite-promoting activity was assessed by scoring neurite growth. On sections of acellular nerve pretreated en bloc with vehicle only the average neurite length was 49 μm. Neurite growth on acellular nerve pretreated en bloc with chondroitinase averaged 96 μm, representing a 95% increase compared to the control condition. To determine if the en bloc chondroitinase treatment was thorough, cryoculture assays were performed on nerve tissues treated with chondroitinase after sectioning (post-treatment).
# CSPG [2] = assay: CSPG neoepitope immunostaining of human nerve segments treated with chondroitinase
# Description: Axonal regeneration was assessed by GAP-43 immunofluorescence and digital image analysis. Tissue sections mounted on slides were washed with PBS and then treated with 0.5% Triton X-100 in PBS for 10 min. The sections were treated with blocking buffer (10% serum in PBS+0.1% Triton X-100) and then incubated overnight at 4° C. with primary antibodies (diluted in blocking buffer). Bound antibodies were labeled with swine anti-rabbit immunoglobulins (DAKO CORPORATION, Carpinteria, Calif.) or goat anti-mouse immunoglobulins (Sigma) FITC-conjugated secondary antibodies for 1 h at room temperature in darkness. The anti-mouse secondary antibody was preadsorbed with rat serum prior to use. The sections were washed, postfixed with 4% paraformaldehyde in PBS, rinsed, and coverslipped in fluorescent mounting media. Affinity-purified rabbit anti-GAP-43 peptide antibody was produced using known methods (Ferguson T A et al. [2000] Mol Cell Neurosci, 16:157-167) and was used at 2 μg/ml. Polyclonal antibody 1918 (CHEMICON INTERNATIONAL, Temecula, Calif.) (1:1000) binds only to the unsaturated disaccharide unit that remains attached to the linkage region of CSPG core protein exposed by digestion with chondroitinase ABC (Bertolotto A et al. [1986] J Neurol Sci 73:233-244). Polyclonal anti-EHS laminin antibody (Sigma) (1:1000) was used to label basal laminae. […]
# CSPG [3] = assay: CSPG-neoepitope immunolabeling of injured sciatic nerve after in vivo chondroitinase injection; design: species or system rat; conditions: single injection 1 U in 2 μl, 2 mm distal to injury; 4 days (transection) or 2 days (crush)
# Description: (§1) All surgical procedures were performed according to Institutional Animal Care and Use Committee (IACUC) approved protocols. Young adult SPRAGUE DAWLEY rats (HARLAN Indianapolis, Ind.) were deeply anesthetized with xylazine (15 mg/kg, i.m.) followed by ketamine-HCl (110 mg/kg, i.p.). Six animals received bilateral nerve crush injuries. Sciatic nerves were exposed and then crushed with firm pressure for thirty seconds with a DUMONT #5 forceps at a site 4 mm distal to the tendon of the internal obdurator. The crush site was marked with an epineurial suture. In a separate set of experiments, eight rats received bilateral sciatic nerve transection injuries using serrated scissors. The proximal and distal stumps were […] by epineurial neurorrhaphy using 9-0 ETHILON sutures. Fibrin glue (fibrinogen and thrombin) was then applied to stabilize the union. In both injury models, the right sciatic nerves were injected 2-mm distal to the injury with chondroitinase ABC (1 U in 2 μl) (high-purity, protease-free; SIGMA CHEMICAL CO., St. Louis, Miss.). Left sciatic nerves (with the same injury as the right side) were injected with vehicle alone (0.1% bovine serum albumin in PBS). Muscle incisions were sutured and the skin closed with metal clips. […]
# Axonal regeneration was assessed by GAP-43 immunofluorescence and digital image analysis. […]
# rat sciatic nerve = assay: Axonal regeneration after bilateral sciatic nerve crush injury (axonotmesis); format: in vivo; conditions: two days after injury, 1 U in 2 μl injected, n=6
# Description: as §1, with “PBS).” for “PBS). Muscle incisions were sutured and the skin closed with metal clips.”
# The hypothesis that chondroitinase treatment improves axonal growth through the site of nerve crush injury was tested. […] Regenerating axons were labeled by GAP-43 immunofluorescence and scored by digital image analysis. […]
substance,measurement,setting,value
chondroitinase ABC,increase in neurite growth compared to the control condition,[1]; acellular nerve pretreated en bloc vs en bloc vehicle,95%
same,average neurite length,"[1]; acellular nerve pretreated en bloc, DRG neurons grown 24 h",96 μm
same,increase in neurite-promoting activity by post-treatment of sections,"[1]; acellular nerve treated en bloc with vehicle only, sections post-treated with chondroitinase",86%
same,effect of post-treatment on sections from en bloc chondroitinase-treated nerve grafts,[1]; post-treatment after sectioning,only a slight additive effect
same,CSPG side chain degradation (neoepitope labeling),CSPG [2],effectively degraded
same,CSPG degradation in extracellular matrix around the injection site,CSPG [3],"substantially, if not completely, degraded CSPG"
same,axonal regeneration after nerve crush injury (GAP-43 immunoreactivity),rat sciatic nerve,no significant difference
same,axonal regeneration after nerve crush injury (GAP-43 immunoreactivity),rat sciatic nerve; listed as chondroitinase,not significantly effected
